Assay results from PubChem BioAssay AID1259411 (Chemical Carcinogenesis Research Information System (CCRIS), 2018).
Activity calls are given as the source filed them. No rule for the calls is given here.

Test system: rodent carcinogenicity bioassays, tumor incidence
Assay: CCRIS carcinogenicity studies
Outline: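 NCI-built, expert-reviewed records of carcinogenicity and related test outcomes (mutagenicity, tumor promotion/inhibition) compiled from published and report sources, historical span 1985-2011, not updated.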

CC1CN(N=O)CCC1=O (centres undefined)
carcinogen call (Species: RAT, Strain/Sex: F344/FEMALE, Route: ORAL, Dose: 0, 80 ML OF SOLUTION OF 126 MG/L IN NEUTRAL DEIONIZED DRINKING WATER 5 D/WK FOR 26 WK (STUDY DURATION: 40 WK), Tumor Site: Type of Lesion: NASAL CAVITY: SQUAMOUS CELL CARCINOMA, TONGUE: TUMOR, FORESTOMACH: TUMOR, ESOPHAGUS: TUMOR, TRACHEA: TUMOR, Tumor Site: Type of Lesion: NASAL CAVITY: SQUAMOUS CELL CARCINOMA, TONGUE: TUMOR, FORESTOMACH: TUMOR, ESOPHAGUS: TUMOR, TRACHEA: TUMOR): active; positive

NC(N)=NC(N)=NCCc1ccccc1
carcinogen call (Species: MOUSE, Strain/Sex: B6C3F1/FEMALE, Route: ORAL, Dose: 0, 1200, 2500 PPM IN DIET, Dose: 0, 1200, 2500 PPM IN DIET): inactive; negative
carcinogen call (Species: MOUSE, Strain/Sex: B6C3F1/MALE, Route: ORAL, Dose: 0, 1200, 2500 PPM IN DIET, Dose: 0, 1200, 2500 PPM IN DIET): inactive; negative
carcinogen call (Species: RAT, Strain/Sex: F344/FEMALE, Route: ORAL, Dose: 0, 15000, 30000 PPM IN DIET, Dose: 0, 15000, 30000 PPM IN DIET): inactive; negative
carcinogen call (Species: RAT, Strain/Sex: F344/MALE, Route: ORAL, Dose: 0, 15000, 30000 PPM IN DIET, Dose: 0, 15000, 30000 PPM IN DIET): inactive; negative

CCCNN
carcinogen call (Species: MOUSE, Strain/Sex: SWISS/FEMALE, Route: ORAL, Dose: 0, 0.025% SOLUTION IN DRINKING WATER DAILY FOR LIFE FOR AND AVERAGE DAILY INTAKE OF 0, 3.0 MG (STUDY DURATION: 100 WK), Dose: 0, 0.025% SOLUTION IN DRINKING WATER DAILY FOR LIFE FOR AND AVERAGE DAILY INTAKE OF 0, 3.0 MG (STUDY DURATION: 100 WK), Tumor Site: Type of Lesion: LUNG: ADENOMA, LUNG: ADENOMA OR ADENOCARCINOMA): active; positive
carcinogen call (Species: MOUSE, Strain/Sex: SWISS/MALE, Route: ORAL, Dose: 0, 0.025% SOLUTION IN DRINKING WATER DAILY FOR LIFE FOR AN AVERAGE DAILY INTAKE OF 0, 2.9 MG (STUDY DURATION: 100 WK), Dose: 0, 0.025% SOLUTION IN DRINKING WATER DAILY FOR LIFE FOR AN AVERAGE DAILY INTAKE OF 0, 2.9 MG (STUDY DURATION: 100 WK), Tumor Site: Type of Lesion: LUNG: ADENOMA, LUNG: ADENOMA OR ADENOCARCINOMA): active; positive

CC(O)CCl (centres undefined)
carcinogen call (Species: MOUSE, Strain/Sex: B6C3F1/FEMALE, Route: ORAL, Dose: 0, 250, 500, 1000 PPM IN DRINKING WATER FOR DURATION OF STUDY (STUDY DURATION: 2 YR), Dose: 0, 250, 500, 1000 PPM IN DRINKING WATER FOR DURATION OF STUDY (STUDY DURATION: 2 YR)): inactive; negative
carcinogen call (Species: MOUSE, Strain/Sex: B6C3F1/MALE, Route: ORAL, Dose: 0, 250, 500, 1000 PPM IN DRINKING WATER FOR DURATION OF STUDY (STUDY DURATION: 2 YR), Dose: 0, 250, 500, 1000 PPM IN DRINKING WATER FOR DURATION OF STUDY (STUDY DURATION: 2 YR)): inactive; negative
carcinogen call (Species: RAT, Strain/Sex: F344/FEMALE, Route: ORAL, Dose: 10, 150, 325, 650 PPM IN DRINKING WATER FOR DURATION OF STUDY (STUDY DURATION: 2 YR), Dose: 10, 150, 325, 650 PPM IN DRINKING WATER FOR DURATION OF STUDY (STUDY DURATION: 2 YR)): inactive; negative
carcinogen call (Species: RAT, Strain/Sex: F344/MALE, Route: ORAL, Dose: 0, 150, 325, 650 PPM IN DRINKING WATER FOR DURATION OF STUDY (STUDY DURATION: 2 YR), Dose: 0, 150, 325, 650 PPM IN DRINKING WATER FOR DURATION OF STUDY (STUDY DURATION: 2 YR)): inactive; negative

CCS(=O)(=O)c1ccc(S(N)(=O)=O)c2ccccc12
carcinogen call (Species: MOUSE, Strain/Sex: A X 1F/FEMALE, Route: ORAL, Dose: 0, 0.01% IN POWDERED OXOID DIET (STUDY DURATION: 333-701 D), Tumor Site: Type of Lesion: BLADDER: CARCINOMA, LUNG: ADENOMA): active; positive
carcinogen call (Species: MOUSE, Strain/Sex: A X 1F/FEMALE, Route: ORAL, Dose: 0, 0.01% IN POWDERED OXOID DIET PRECEDED BY IRRADIATION OF 1000 RAD WITH UPPER BODY SHIELDED 48H PRIOR TO DOSING (STUDY, Tumor Site: Type of Lesion: BLADDER: CARCINOMA, LUNG: ADENOMA): active; positive

Cc1cccn2c1nc1ccc(N)nc12
carcinogen call (Species: MOUSE, Strain/Sex: B6C3F1/MALE, Route: INTRAPERITONEAL, Dose: 0, 0.625 UMOL IN 35 µL DMSO ON D 1, 8, AND 15 AFTER BIRTH (STUDY DURATION: 8 MO), Tumor Site: Type of Lesion: LIVER: HEPATOCELLULAR ADENOMA): active; positive
carcinogen call (Species: MOUSE, Strain/Sex: B6C3F1/MALE, Route: INTRAPERITONEAL, Dose: 0, 0.625 UMOL IN 35 µL DMSO ON D 1, 8, AND 15 AFTER BIRTH (STUDY DURATION: 12 MO), Tumor Site: Type of Lesion: LIVER: HEPATOCELLULAR ADENOMA): active; positive
carcinogen call (Species: MOUSE, Strain/Sex: B6C3F1/MALE, Route: INTRAPERITONEAL, Dose: 0, 1.25 UMOL IN 35 µL DMSO ON D 1, 8, AND 15 AFTER BIRTH (STUDY DURATION: 8 MO), Tumor Site: Type of Lesion: LIVER: HEPATOCELLULAR ADENOMA): active; positive
carcinogen call (Species: MOUSE, Strain/Sex: B6C3F1/MALE, Route: INTRAPERITONEAL, Dose: 0, 1.25 UMOL IN 35 µL DMSO ON D 1, 8, AND 15 AFTER BIRTH (STUDY DURATION: 12 MO), Tumor Site: Type of Lesion: LIVER: HEPATOCELLULAR ADENOMA): active; positive
carcinogen call (Species: MOUSE, Strain/Sex: CDF1/FEMALE, Route: ORAL, Dose: 0, 0.05% IN DIET FOR UP TO 685 D (STUDY DURATION: 685 D), Tumor Site: Type of Lesion: LIVER: HEPATOCELLULAR ADENOMA OR CARCINOMA, BLOOD VESSELS: HEMANGIOENDOTHELIOMA OR HEMANGIOENDOTHELIAL SARCOMA): active; positive
carcinogen call (Species: MOUSE, Strain/Sex: CDF1/MALE, Route: ORAL, Dose: 0, 0.05% IN DIET FOR 12 MO (STUDY DURATION: 12 MO), Tumor Site: Type of Lesion: BROWN ADIPOSE TISSUE: HEMANGIOENDOTHELIAL SARCOMA, LIVER: HEPATOCELLULAR ADENOMA OR CARCINOMA, LUNG: PULMONARY ADENOMA O, Tumor Site: Type of Lesion: BROWN ADIPOSE TISSUE: HEMANGIOENDOTHELIAL SARCOMA, LIVER: HEPATOCELLULAR ADENOMA OR CARCINOMA, LUNG: PULMONARY ADENOMA O): active; positive
carcinogen call (Species: MOUSE, Strain/Sex: CDF1/MALE, Route: ORAL, Dose: 0, 0.05% IN DIET FOR UP TO 685 D (STUDY DURATION: 685 D), Tumor Site: Type of Lesion: BLOOD VESSELS: HEMANGIOENDOTHELIOMA OR HEMANGIOENDOTHELIAL SARCOMA): active; positive
carcinogen call (Species: RAT, Strain/Sex: F344/FEMALE, Route: ORAL, Dose: 0, 500 PPM IN DIET (AV DAILY DOSE: 4.3 MG) FOR 24 MO (STUDY DURATION: 104 WK), Tumor Site: Type of Lesion: LIVER: HEPATOCELLULAR CARCINOMA OR ANAPLASTIC HEPATOMA, SMALL INTESTINE: ADENOMA OR ADENOCARCINOMA OR MUCINOUS CARCINOMA): active; positive
carcinogen call (Species: RAT, Strain/Sex: F344/MALE, Route: ORAL, Dose: 0, 500 PPM IN DIET (AV DAILY DOSE: 7.4 MG) FOR 24 MO (STUDY DURATION: 104 WK), Tumor Site: Type of Lesion: LIVER: HEPATOCELLULAR CARCINOMA OR ANAPLASTIC HEPATOMA, SMALL INTESTINE: ADENOMA OR ADENOCARCINOMA OR MUCINOUS CARCINOMA): active; positive

CC(=O)N(O)c1ccc2ccc3cccc4ccc1c2c34
carcinogen call (Species: RAT, Strain/Sex: STRAIN-CD/FEMALE, Route: INTRAPERITONEAL, Dose: 0, 67 UMOL/KG BW IN DMSO 3/WK FOR 4 WK (STUDY DURATION: 61 WK)): inactive; negative
carcinogen call (Species: RAT, Strain/Sex: STRAIN-CD/FEMALE, Route: INTRAPERITONEAL, Dose: 0, 67 UMOL/KG/BW IN 25 UMOL/ML DMSO 3/WK FOR 4 WK (TOTAL DOSE: 0; 119 UMOL) ADMINISTERED TO WEANLING RATS (STUDY DURATIO, Dose: 0, 67 UMOL/KG/BW IN 25 UMOL/ML DMSO 3/WK FOR 4 WK (TOTAL DOSE: 0; 119 UMOL) ADMINISTERED TO WEANLING RATS (STUDY DURATIO): inactive; negative
